{"source": "patent US11696917B2", "about": "“Agent enhancing antitumor effect using pyrazolo[3,4-d]pyrimidine compound” (TAIHO PHARMACEUTICAL CO., LTD., priority 2017, dated 2023)", "test_system": "human stomach cancer cell line NCI-N87", "experiment": "Combination of Compound 1 and capecitabine (in vivo), subcutaneous tumor in nude mice", "parameters": "species or system nude mouse (BALB/cAJcl-nu/nu)", "details": "for T/C (%): Day 15", "experimental": "A human stomach cancer cell line NCI-N87 was obtained from American Type Culture Collection (ATCC). The cell line was cultured at 37° C. in a 5% CO2 incubator using RPMI-1640 (containing 4.5 g/L glucose, 10 mM HEPES, and 1 mM sodium pyruvate) (Wako Pure Chemical Industries, Ltd.) medium containing 10% fetal bovine serum (FBS).\nThe NCI-N87 cells were resuspended at a concentration of 8×10^7 cells/mL in PBS.\nThe cell suspension was subcutaneously transplanted in an amount of 8×10^6 cells/0.1 mL to the right chest of a 6-week-old nude mouse (BALB/cAJcl-nu/nu, CLEA Japan, Inc.) using a 1 mL syringe for tuberculin and a 25 G injection needle.\nElectronic calipers were used in tumor size measurement.", "key": {"[1]": {"details": "Capecitabine 359 mg/kg/day p.o. Days 1-14"}, "[2]": {"details": "Capecitabine 809 mg/kg/day p.o. Days 1-14"}}, "data": [{"smiles": "CCCCCOC(=O)Nc1nc(=O)n([C@@H]2O[C@H](C)[C@@H](O)[C@H]2O)cc1F", "note": "[Capecitabine, capecitabine]", "values": [{"measurement": "BWC (%) Day 15 Mean", "setting": "[1]", "result": 7.51, "unit": "%"}, {"measurement": "RTV Day 15 Mean ± SD", "setting": "[1]", "result": "1.26 ± 0.21"}, {"measurement": "T/C (%)", "setting": "[1]", "result": 30.4, "unit": "%"}, {"measurement": "BWC (%) Day 15 Mean", "setting": "[2]", "result": "−5.30", "unit": "%"}, {"measurement": "RTV Day 15 Mean ± SD", "setting": "[2]", "result": "1.12 ± 0.18"}, {"measurement": "T/C (%)", "setting": "[2]", "result": 27.1, "unit": "%"}, {"measurement": "RTV on Day 15 compared with the control group (in words)", "setting": "Dunnett's test", "result": "significantly lower"}]}]}
